Experimental data reported in patent publication US20260008818A1, “CYCLIC PEPTIDE OR SALT THEREOF, AND USES THEREOF” (FUJIFILM Corporation, priority 2023, published 2026).
Bridge positions count the residues as written; N and C are the ends. Square brackets hold non-standard residues; d marks the D form. Ends that are not written are not given here. COCH2 = acetyl group that carries the bridge; hCys = N[C@@H](CCS)C(=O)O; Orn = NCCC[C@H](N)C(=O)O; Dab = NCC[C@H](N)C(=O)O; Dap = NC[C@H](N)C(=O)O

T1: Recombinant Human FGFR1 alpha (IIIc) Fc Chimera Protein, CF (R&D systems, 658-FR-050) (human, UniProt P11362 22-376)
T1 construct: bought reagent; not shown: Fc of the bought chimera
T1 sequence (looked up): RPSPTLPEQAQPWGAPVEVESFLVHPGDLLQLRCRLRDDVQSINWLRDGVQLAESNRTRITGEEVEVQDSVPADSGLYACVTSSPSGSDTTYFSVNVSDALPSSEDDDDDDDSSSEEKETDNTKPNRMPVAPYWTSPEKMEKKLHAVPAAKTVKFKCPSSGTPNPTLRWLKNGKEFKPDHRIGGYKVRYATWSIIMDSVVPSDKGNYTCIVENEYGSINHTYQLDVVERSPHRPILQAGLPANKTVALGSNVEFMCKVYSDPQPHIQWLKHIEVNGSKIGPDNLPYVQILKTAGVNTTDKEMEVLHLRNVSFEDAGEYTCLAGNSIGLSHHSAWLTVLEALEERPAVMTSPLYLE

B1: SEQ ID NO: 377 (peptide)
peptide: H[hCys]SYERLQFHGHEAPFRV[Dap]VKKK
modifications: bridge 2-19; not fully specified (residue 19, bridges); printed as H-(Hcy)-SYERLQFHGHEAPFRV-(Dap(acetyl))-VKKK
notes: chemically synthesized
B2: SEQ ID NO: 380 (peptide)
peptide: H[Dab]SYERLQFHGHEAPFRV[hCys]VKKK
modifications: bridge 2-19; not fully specified (residue 2, bridges); printed as H-(Dab(acetyl))-SYERLQFHGHEAPFRV-(Hcy)-VKKK
notes: chemically synthesized
B3: SEQ ID NO: 381 (peptide)
peptide: H[Dap]SYERLQFHGHEAPFRV[hCys]VKKK
modifications: bridge 2-19; not fully specified (residue 2, bridges); printed as H-(Dap(acetyl))-SYERLQFHGHEAPFRV-(Hcy)-VKKK
notes: chemically synthesized
B4: SEQ ID NO: 385 (peptide)
peptide: XSYERLIFHGHEAPFWVXKKK
modifications: not fully specified; Orn(acetyl); Hcy; thioether ring (Orn(acetyl))-(Hcy)
notes: chemically synthesized
B5: SEQ ID NO: 374 (peptide)
peptide: H[hCys]SYERLQFHGHEAPFRVKVKKK
modifications: bridge 2-19; not fully specified (residue 19, bridges); printed as H-(Hcy)-SYERLQFHGHEAPFRV-(K(acetyl))-VKKK
notes: chemically synthesized
B6: SEQ ID NO: 379 (peptide)
peptide: HXSYERLQFHGHEAPFRVXVKKK
modifications: not fully specified; Orn(acetyl); Hcy; thioether ring (Orn(acetyl))-(Hcy)
notes: chemically synthesized
B7: SEQ ID NO: 389 (peptide)
peptide: HXSYERLIFHGHEAPFWVXKKK
modifications: not fully specified; Orn(acetyl); Hcy; thioether ring (Orn(acetyl))-(Hcy)
notes: chemically synthesized
B8: SEQ ID NO: 375 (peptide)
peptide: H[hCys]SYERLQFHGHEAPFRV[Orn]VKKK
modifications: bridge 2-19; not fully specified (residue 19, bridges); printed as H-(Hcy)-SYERLQFHGHEAPFRV-(Orn(acetyl))-VKKK
notes: chemically synthesized
B9: SEQ ID NO: 387 (peptide)
peptide: HXSYERLIFHGHEAPFWVXVKKK
modifications: not fully specified; meL (N-methyl leucine); Orn(acetyl); Hcy; thioether ring (Orn(acetyl))-(Hcy)
notes: chemically synthesized
B10: SEQ ID NO: 384 (peptide)
peptide: HXSYERLIFHGHEAPFWVXVKKK
modifications: not fully specified; Orn(acetyl); Hcy; thioether ring (Orn(acetyl))-(Hcy)
notes: chemically synthesized
B11: SEQ ID NO: 388 (peptide)
peptide: HXSYERXIFHGHEAPFWVXVKKK
modifications: not fully specified; Hle (homoleucine); Orn(acetyl); Hcy; thioether ring (Orn(acetyl))-(Hcy)
notes: chemically synthesized
B12: SEQ ID NO: 390 (peptide)
peptide: XSYERLIFHGHEAPFWVXVKKK
modifications: not fully specified; Orn(acetyl); Hcy; thioether ring (Orn(acetyl))-(Hcy)
notes: chemically synthesized
B13: SEQ ID NO: 376 (peptide)
peptide: H[hCys]SYERLQFHGHEAPFRV[Dab]VKKK
modifications: bridge 2-19; not fully specified (residue 19, bridges); printed as H-(Hcy)-SYERLQFHGHEAPFRV-(Dab(acetyl))-VKKK
notes: chemically synthesized
B14: SEQ ID NO: 378 (peptide)
peptide: HKSYERLQFHGHEAPFRV[hCys]VKKK
modifications: bridge 2-19; not fully specified (residue 2, bridges); printed as H-(K(acetyl))-SYERLQFHGHEAPFRV-(Hcy)-VKKK
notes: chemically synthesized
B15: SEQ ID NO: 386 (peptide)
peptide: Ac-HASYERLIFHGHEAPFWVCVKKK
modifications: bridge N-19; not fully specified; printed as (Ac)-HASYERLIFHGHEAPFWV-(C)-VKKK
notes: chemically synthesized

tested on: Recombinant Human FGFR1 alpha (IIIc) Fc Chimera Protein; experiment: Binding affinity of enzymatically synthesized cyclic peptide to FGFR by ELISA; settings: luminescence signal at reaction concentration 10 nmol/L, SEQ ID NO: 39 standardized to 1, enzyme synthesis product
Outline: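 Plate-immobilized FGFR1α(IIIc)-Fc (5 ng/well) incubated with Myc-tagged cyclic peptide 3 h at room temperature; bound peptide detected with anti-Myc antibody (2 h) and chemiluminescence. Signal is FGFR minus no-FGFR wells, normalized to SEQ ID NO: 39 at 10 nmol/L and graded A–D.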

Row | Evaluation result of binding affinity to FGFR | Molecule
1 | C (0.1 or more and less than 0.5) | 348 (PCTGWTPLYFFGKRAPFLVNK(COCH2)A; thioether 2-21) [compound 348]
2 | C (0.1 or more and less than 0.5) | 106 (HCSYERLQFHWHEAPFRVK(COCH2)V; thioether 2-19 (inferred)) [compound 106]
3 | A (0.7 or more) | 100 (HCSFERLQFHGHEAPFRVK(COCH2)V; thioether 2-19 (inferred)) [compound 100]
4 | A (0.7 or more) | 65 (HCSYERLQFHGHEAPFRAK(COCH2)V; thioether 2-19 (inferred)) [compound 65]
5 | A (0.7 or more) | 178 (HCSYERLQFHGHLAPFRVK(COCH2)V; thioether 2-19 (inferred)) [compound 178]
6 | A (0.7 or more) | 61 (HCSYERLQFAGHEAPFRVK(COCH2)V; thioether 2-19 (inferred)) [compound 61]
7 | C (0.1 or more and less than 0.5) | 55 (HCASYERLQFHGHEAPFRVK(COCH2)V; thioether 2-20 (inferred)) [compound 55]
8 | C (0.1 or more and less than 0.5) | 265 (FCQFETLKFFGWEAPYLVK(COCH2)L; thioether 2-19 (inferred)) [compound 265]
9 | C (0.1 or more and less than 0.5) | 368 (ECKVHLHPWGAPFWIK(COCH2)S; thioether 2-16) [compound 368]
10 | C (0.1 or more and less than 0.5) | 254 (WCQLRFQGHLAPFIILK(COCH2)H; thioether 2-17 (inferred)) [compound 254]
11 | C (0.1 or more and less than 0.5) | 346 (ACWLRHIYQGHQAPFLIWSTK(COCH2)S; thioether 2-21) [compound 346]
12 | A (0.7 or more) | 200 (HCSYERLQFHGHEAPFTVK(COCH2)V; thioether 2-19 via Ac; not fully specified) [compound 200]
13 | C (0.1 or more and less than 0.5) | 313 (HCQWERLIFLGHIAPFWVK(COCH2)R; thioether 2-19 (inferred)) [compound 313]
14 | A (0.7 or more) | 296 (HCMYERLQFHGHEAPFRVK(COCH2)V; thioether 2-19 (inferred)) [compound 296]
15 | C (0.1 or more and less than 0.5) | 108 (HCSYERLQFHQHEAPFRVK(COCH2)V; thioether 2-19 (inferred)) [compound 108]

target: T1, Recombinant Human FGFR1 alpha (IIIc) Fc …; experiment: SPR, FGFR1-Fc immobilized, 10 nmol/L peptide; settings: not given
Method: A CM5 sensor chip (Cytiva, 29149603) was set in Biacore-T200 (manufactured by Cytiva) which is a surface plasmon resonance device, and an HBS-EP buffer (Cytiva, BR100826) was added as a running buffer at a flow rate of 10 μL/min to equilibrate the flow channel. Next, 70 μL of a mixed aqueous solution of 0.2 mol/L 1-(3-dimethylaminopropyl)-3-ethylcarbodiimide (EDC) and 0.05 mol/L N-hydroxysuccinimide (NHS) was added to activate the sensor chip. Then, Recombinant Human FGFR 1 alpha (IIIc) Fc Chimera Protein CF (R&D systems, 658-FR-050) prepared at 50 nmol/L in an Acetate 4.5 buffer (Cytiva, BR100350) was added thereto to perform immobilization at about 5000 RU. Thereafter, the blocking treatment was performed with an ethanolamine solution. In addition, in another flow channel of the same sensor chip, blocking treatment was performed immediately after activation without immobilizing FGFR.
A cyclic peptide diluted to 10 nmol/L using HBS-EP was added to each flow channel of the FGFR-immobilized sensor chip produced above at 25° C. for 10 minutes, then HBS-EP was allowed to flow as a running buffer for 30 minutes, and the binding of the cyclic peptide to FGFR was measured. Thereafter, a regeneration treatment of removing the bound cyclic peptide was performed by repeating the flow of a regeneration liquid in which sodium chloride powder was dissolved in Glysine 1.5 (Cytiva, BR100354) to a final concentration of 0.15 mol/L for 1 minute in each flow channel twice. The binding amount of the cyclic peptide was evaluated from the difference between the measured value of Biacore-T200 in the flow channel in which FGFR was immobilized and the measured value of Biacore-T200 in the flow channel in which FGFR was not immobilated, in a case where a 10 nmol/L cyclic peptide was allowed to flow.

Row | binding amount (SPR, cyclic peptide molecules bound per one molecule of FGFR at 10 nmol/L peptide) | Molecule
16 | ≥ 0.7 moleculesofthecyclicpeptide/onemoleculeoffgfr | B1
17 | ≥ 0.7 moleculesofthecyclicpeptide/onemoleculeoffgfr | B2
18 | ≥ 0.7 moleculesofthecyclicpeptide/onemoleculeoffgfr | B3
19 | 0.1 to 0.5 moleculesofthecyclicpeptide/onemoleculeoffgfr | B4
20 | ≥ 0.7 moleculesofthecyclicpeptide/onemoleculeoffgfr | B5
21 | ≥ 0.7 moleculesofthecyclicpeptide/onemoleculeoffgfr | B6
22 | ≥ 0.7 moleculesofthecyclicpeptide/onemoleculeoffgfr | B7
23 | ≥ 0.7 moleculesofthecyclicpeptide/onemoleculeoffgfr | B8
24 | ≥ 0.7 moleculesofthecyclicpeptide/onemoleculeoffgfr | B9
25 | ≥ 0.7 moleculesofthecyclicpeptide/onemoleculeoffgfr | B10
26 | ≥ 0.7 moleculesofthecyclicpeptide/onemoleculeoffgfr | B11
27 | 0.1 to 0.5 moleculesofthecyclicpeptide/onemoleculeoffgfr | B12
28 | ≥ 0.7 moleculesofthecyclicpeptide/onemoleculeoffgfr | B13
29 | ≥ 0.7 moleculesofthecyclicpeptide/onemoleculeoffgfr | B14
30 | 0.5 to 0.7 moleculesofthecyclicpeptide/onemoleculeoffgfr | B15
